Source: ChEMBL document CHEMBL1201862, “PubChem BioAssay data set” (2004)
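Values below derive from 48-hour exposures of cells grown in 96-well plates, with endpoints linearly interpolated between the two concentrations bracketing the appropriate inhibition level. At the GI50, growth is halved.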 Activity calls are given as the source filed them. No stated cut-off is given here; in the data, active = GI50 up to about 1.1 µM and inactive = higher.

Experiments:
Assay in all cases: DTP human tumour cell line panel, 48 h
[1] = test system: SNB-75
[2] = test system: A549
[3] = test system: SK-MEL-28
[4] = test system: HL-60
[5] = test system: NCI-H460
[6] = test system: OVCAR-3
[7] = test system: HT-29
[8] = test system: SF-539
[9] = test system: NCI-H23
[10] = test system: HCT-15
[11] = test system: MCF7
[12] = test system: SK-OV-3
[13] = test system: SF-268
[14] = test system: Malme-3M
[15] = test system: LOX IMVI
[16] = test system: SF-295
[17] = test system: NCI/ADR-RES
[18] = test system: TK-10
[19] = test system: OVCAR-4
[20] = test system: CCRF-CEM
[21] = test system: HOP-92
[22] = test system: 786-0
[23] = test system: HOP-62
[24] = test system: T47D
[25] = test system: RXF 393
[26] = test system: MDA-N
[27] = test system: NCI-H226
[28] = test system: ACHN
[29] = test system: MDA-MB-435
[30] = test system: PC-3
[31] = test system: SN12C
[32] = test system: KM12
[33] = test system: SK-MEL-5
[34] = test system: MOLT-4
[35] = test system: HCT-116
[36] = test system: U-251
[37] = test system: SK-MEL-2
[38] = test system: UO-31
[39] = test system: OVCAR-8
[40] = test system: SR
[41] = test system: A498
[42] = test system: HCC 2998
[43] = test system: M14
[44] = test system: EKVX
[45] = test system: K562
[46] = test system: SNB-19
[47] = test system: NCI-H522
[48] = test system: UACC-62
[49] = test system: MDA-MB-231
[50] = test system: OVCAR-5
[51] = test system: UACC-257
[52] = test system: COLO 205
[53] = test system: SW-620
[54] = test system: DU-145
[55] = test system: RPMI-8226
[56] = test system: BT-549
[57] = test system: IGROV-1

Measured: GI50

Nc1ccc(S(=O)(=O)Nc2nccs2)cc1 [SULFATHIAZOLE]
> 100 µM: [10]
active: [21] 0.0101 µM
inactive: [1] 17 µM | [2] > 100 µM | [3] > 100 µM | [4] > 100 µM | [5] > 100 µM | [6] > 100 µM | [7] > 100 µM | [8] > 100 µM | [9] > 100 µM | [11] > 100 µM | [12] > 100 µM | [13] > 100 µM | [14] > 100 µM | [15] > 100 µM | [16] > 100 µM | [17] > 100 µM | [18] > 100 µM | [19] > 100 µM | [20] > 100 µM | [22] > 100 µM | [23] > 100 µM | [24] > 100 µM | [25] > 100 µM | [26] > 100 µM | [27] > 100 µM | [28] > 100 µM | [29] > 100 µM | [30] > 100 µM | [31] > 100 µM | [32] > 100 µM | [33] > 100 µM | [34] > 100 µM | [35] > 100 µM | [36] > 100 µM | [37] > 100 µM | [38] > 100 µM | [39] > 100 µM | [40] > 100 µM | [41] > 100 µM | [42] > 100 µM | [43] > 100 µM | [44] > 100 µM | [45] > 100 µM | [46] > 100 µM | [47] > 100 µM | [48] > 100 µM | [49] > 100 µM | [50] > 100 µM | [51] > 100 µM | [52] > 100 µM | [53] > 100 µM | [54] > 100 µM | [55] > 100 µM | [56] > 100 µM | [57] > 100 µM
